Source: patent US5192784A, “Etanidazole injectable solution” (Du Pont Merck Pharmaceutical Company, priority 1992, dated 1993)
In brackets after ≈: the same amount, converted by molar mass.

Legend:
[1] = Effect of ionic strength on rate of decomposition in 0.1M acetate, pH 5.0, 80° C.; type: physicochemical
Protocol: (§1) The k values shown in Tables 1-5 and FIG. 1 should be multipled by a factor of 2.303 to provide the actual k value.
(§2) The chemical stability of etanidazole was evaluated in solutions of varying composition stored at 80° C. Etanidazole was placed into suitable containers and sufficient buffer was added to result in a 1 mg/ml solution. A constant ionic strength of 0.3 was maintained with potassium chloride. All solutions were prepared in triplicate. The solution was divided into 2 ml sealed glass vials and was placed into cardboard storage boxes to protect the compound from light. At appropriate intervals, samples were removed from the stability chamber and cooled to room temperature. An aliquot of the sample was diluted with mobile phase containing internal standard prior to HPLC analysis. For those pH conditions where degradation was rapid, the sample aliquot was immediately quenched to neutral pH and room temperature.
(§3) Data were analyzed using methods as described by Martin et al. in "Physical Pharmacy", 3rd ed, pp 352-395 (1983).
The impact of the ionic strength of the buffer system on the rate of decomposition was examined in 0.1M acetate, pH 5.0, at 80° C. Ionic strengths of 0.15, 0.30 and 0.60 were employed.

[2] = Crystal formation on storage at 4° C., autoclaved vs non-autoclaved (reheated samples); type: physicochemical
Protocol: Sixteen samples of etanidazole solutions at various pHs, which contained crystals, were heated in a 56° C. water bath for 1 hour to dissolve the crystals. After heating, the samples were divided evenly.

[3] = Equilibrium solubility of etanidazole in 0.05M acetate or citrate buffers at pH 4.0 with additives; type: physicochemical; conditions: for solubility: mean ± SD, read-out: Solubility at 4° C.
Protocol: Equilibrium solubility of etanidazole in 0.05M acetate or citrate buffers at pH 4.0 and the effects of additives were determined.

[4] = Effects of additives on apparent solubility / crystallization of etanidazole solutions; type: physicochemical; conditions: for time to formation of crystalline material: excess or 150 mg/ml
Protocol: The effects of additives on the apparent solubility of etanidazole were evaluated. […] Possible effects of additives are to inhibit the crystallization of etanidazole hydrate and to solubilize etanidazole hydrate.
Solutions were mixed by rotating end-to-end for 72 hours at room temperature. […] These were placed in 4° C. storage. […] In the case of solutions containing 1% ethanolamine or 0.1% diethanolamine as additives and excess or 150 mg/ml etanidazole, crystalline material had found within 24 hours at room temperature, but the 50 mg/ml and 100 mg/ml solutions remained clear at room temperature for 72 hours. These samples were placed at 4° C. […] After 2 months at 4° C., 1 of the 3 vials remained free of crystals. The 50 mg/ml etanidazole solution with 0.1% diethanolamine remained clear for at least 2 months at 4° C.

[5] = Effect of autoclaving on crystal formation at 4° C. over 43 days, pH 3.0, 3.5 and 4.0; type: physicochemical; conditions: for samples that developed crystals: 50 mg/ml
Protocol: Further studies were done in which etanidazole (50 mg/ml) solutions at pH 3.0, 3.5, and 4.0 were prepared and the effect of autoclaving was evaluated. At pH 3.0, 0 of 48 autoclaved samples and 0 of 48 non-autoclaved samples developed crystals when stored at 4° C. over 43 days. At pH 3.5, 0 of 49 autoclaved samples developed crystals, and 3 of 50 non-autoclaved samples developed crystals when stored at 4° C. over 43 days. At pH 4.0, 0 of 50 autoclaved samples developed crystals when stored at 4° C. for 43 days, but 1 of 50 non-autoclaved samples developed crystals.

[6] = Effect of initial etanidazole concentration on rate of decomposition in 0.05M citrate pH 5.5, 80° C.; type: physicochemical
Protocol: as §1, §2, §3
The effect of initial etanidazole concentration on the rate of decomposition was examined in 0.05M citrate pH 5.5, at 80° C. Initial concentrations of 1, 25 and 50 mg/ml were employed.

Protocol for physchem: Solubility studies were carried out by placing excess etanidazole into a suitable container and rotating end-to-end for twenty four hours at 25° C. The suspension was passed through a 0.2μ filter with the first portion discarded to ensure saturation of the filter. An aliquot of the filtrate was diluted and analyzed by HPLC and the remainder of the filtrate was employed for pH determination.

## O=C(Cn1ccnc1[N+](=O)[O-])NCCO [Etanidazole]
[1]; 0.15, 0.30 and 0.60, 0.1M acetate pH 5.0, 80° C.
  effect of ionic strength on degradation rate: negligible effect on the degradation rate
[1]; ionic strength 0.15, 0.1M acetate pH 5.0, 80° C.
  kobs, observed first-order rate constant: 0.0059 ± 0.000108 day⁻¹
[1]; ionic strength 0.30, 0.1M acetate pH 5.0, 80° C.
  kobs, observed first-order rate constant: 0.00516 ± 0.000104 day⁻¹
[1]; ionic strength 0.60, 0.1M acetate pH 5.0, 80° C.
  kobs, observed first-order rate constant: 0.00518 ± 0.000306 day⁻¹
[2]; 50 mg/ml, aqueous buffer, 4° C.
  crystalline particulates on storage: occasionally develop crystalline particulates
[2]; various pHs, heated 56° C. 1 hour, then 4 days at 4° C.
  non-autoclaved samples containing crystals again: 3 of 8
[3]; 0.05m acetate buffer, aqueous buffer, acetate 0.05M pH 4.0, no additive
  solubility: 83.4 ± 26.3 mg/mL (≈ 389 mM)
[3]; 0.05m acetate buffer, acetate 0.05M pH 4.0, 0.065% Imidazole
  solubility: 64.8 ± 32.1 mg/mL (≈ 303 mM)
[3]; 0.05m acetate buffer, acetate 0.05M pH 4.0, 0.13% Ethylenediamine
  solubility: 54.8 ± 30.9 mg/mL (≈ 256 mM)
[3]; 0.05m citrate buffer, aqueous buffer, citrate 0.05M pH 4.0, no additive
  solubility: 36.6 ± 6.4 mg/mL (≈ 171 mM)
[3]; 0.05m citrate buffer, citrate 0.05M pH 4.0, 0.065% Imidazole
  solubility: 95.4 ± 3.7 mg/mL (≈ 445 mM)
[3]; 0.05m citrate buffer, citrate 0.05M pH 4.0, 0.13% Ethylenediamine
  solubility: 61.5 ± 33.9 mg/mL (≈ 287 mM)
[3]; citrate buffer, pH 4.0, 4° C.
  effect of imidazole on etanidazole solubility: Imidazole increased etanidazole solubility in citrate buffer
[4]; 0.1% diethanolamine, 50 mg/ml, 4° C.
  time solution remained clear: at least 2 months
[4]; 0.1% diethanolamine, 50 mg/ml, room temperature
  time solution remained clear: 72 h
[4]; 0.1% diethanolamine, 100 mg/ml, 4° C., after 2 months
  vials that remained free of crystals: 1 of the 3
[4]; 0.1% diethanolamine, 100 mg/ml, 4° C., within 24 hours
  vials showing crystallization: 1 of 3
[4]; 0.1% diethanolamine, 100 mg/ml, room temperature
  time solution remained clear: 72 h
[4]; 0.1% diethanolamine, room temperature
  time to formation of crystalline material: ≤ 24 h
[4]; 1% ethanolamine, 50 mg/ml, 4° C.
  time solution remained clear: at least 1 month
[4]; 1% ethanolamine, 50 mg/ml, room temperature
  time solution remained clear: 72 h
[4]; 1% ethanolamine, 100 mg/ml, 4° C.
  time to crystallization: ≤ 24 h
[4]; 1% ethanolamine, 100 mg/ml, room temperature
  time solution remained clear: 72 h
[4]; 1% ethanolamine, room temperature
  time to formation of crystalline material: ≤ 24 h
[4]; 1% imidazole and excess etanidazole, 72 hours, room temperature
  solid form of excess solid: appeared to have been converted to etanidazole hydrate
[4]; 1% imidazole, 50 mg/ml, 4° C. (up to)
  time solution remained clear: up to 1 month
[4]; 1% imidazole, 100 mg/ml, 4° C. (up to)
  time solution remained clear: up to 1 month
[4]; 1% imidazole, 150 mg/ml, 4° C.
  time to crystal formation: ≤ 2 h
[4]; 1% imidazole, up to 150 mg/ml etanidazole, room temperature, 72 hours
  appearance of solution: remained clear and free of particulates
[4]; imidazole, ethanolamine, diethanolamine, room temperature or 4° C.
  effect of additives on etanidazole solutions: these additives stabilize etanidazole solutions, inhibiting crystal formation
physchem; initial dissolved concentration (before crystals appeared)
  solubility: > 150 mg/mL
physchem; solubility
  solubility at 24 h: 59.2 to 71.7 mg/mL (≈ 276 to 335 mM)
physchem; water, pH 6.5, water, solubility in water
  solubility at 24 h: 68.1 mg/mL (≈ 318 mM)
[5]; pH 3.0, autoclaved, 4° C. over 43 days
  samples that developed crystals: 0 of 48
[5]; pH 3.0, non-autoclaved, 4° C. over 43 days
  samples that developed crystals: 0 of 48
[5]; pH 3.5, autoclaved, 4° C. over 43 days
  samples that developed crystals: 0 of 49
[5]; pH 3.5, non-autoclaved, 4° C. over 43 days
  samples that developed crystals: 3 of 50
[5]; pH 4.0, autoclaved, 4° C. for 43 days
  samples that developed crystals: 0 of 50
[5]; pH 4.0, non-autoclaved, 4° C., 43 days
  samples that developed crystals: 1 of 50
[5]; subsequent storage at 4° C.
  effect of autoclaving on crystal formation: autoclaving prevents the formation of crystals
[6]; 1, 25 and 50 mg/ml
  effect of initial concentration on degradation: not concentration dependent in this range
[6]; initial concentration 1 mg/ml
  kobs, observed first-order rate constant: 0.00957 ± 7.37e-05 day⁻¹
[6]; initial concentration 25 mg/ml
  kobs, observed first-order rate constant: 0.0127 ± 0.000586 day⁻¹
[6]; initial concentration 50 mg/ml
  kobs, observed first-order rate constant: 0.0127 ± 0.000153 day⁻¹
